# Patent US12571052B2, “Immunomodulatory RNA” (THE TRUSTEES OF THE UNIVERSITY OF PENNSYLVANIA, priority 2017, dated 2026)
# Key:
# [1] = tested on: 1833 breast cancer cells; assay: ISG expression in breast cancer cells after RNA transfection (qRT-PCR); assay type: cell-based, Human
# Experimental: Gene Targeting and Expression. Gene knockdown by siRNA was completed using SMARTPool siRNAs (Thermo) and transfected using 20 nM siRNA and RNAiMax (Invitrogen) transfection reagent. For stable knockdowns, shRNAs were cloned into the pGIPZ vector and transduced by virus using pCMV-VSV-G and pHR8.2AR envelope and packaging vectors in HEK293T cells. Transduced cells were selected using 1-2 ug/ml of puromycin. Wild-type and K858A/K861A binding mutant of RIG-I was cloned into the pOZ-N vector. Transduced cells were then selected with IL-2 receptor magnetic beads and expression was confirmed by Western blot for FLAG, HA, and RIG-I. RIG-I restoration was functionally confirmed by RIG-I pathway activation in response to Sendai virus infection. SRP9 and SRP14 were transiently transfected with pGFH-9 (Addgene plasmid #39538) and pGFH-14c (Addgene plasmid #39541), both gifts from Katharina Strub. Gene knockout by CRISPR was accomplished using pSpCas9 (BB)-2A-GFP (PX458) (Addgene plasmid #48138). RIG-I was knocked out utilizing the protocol described (Ran et al. (2013) Nat. Protoc. 8, 2281-2308). In brief, two distinct guide RNAs cloned into the pSpCas9 (BB)-2A-GFP backbone were transiently transfected into breast cancer cells. After 48 hours, single cells were sorted into 96 well single cell clones based on highest GFP expression. Clones were confirmed to have no RIG-I expression by immunoblot and pooled. RIG-I KO in the pooled clones were functionally confirmed by RIG-I pathway activation in response to Sendai virus infection.
# In Vitro Transcription. In vitro transcription was performed using of PCR amplified cDNA templates that contained Hepatitis Delta Virus Ribozyme to ensure homogenous 3′ ends of the transcripts of interest (Avis et al. (2012) Methods Mol. Biol. 941, 83-97). In vitro transcription was completed with the MEGAshortscript T7 Transcription Kit (ThermoFisher) according to manufacturer's instructions. RNA was DNase treated and phenol/chloroform purified. After thermocycling to ensure ribozyme cleavage, correct size transcripts were gel purified. […]
# [2] = tested on: B16-F10 tumor cells; assay: B16-F10/MEF co-implantation, tumor immune populations by flow cytometry; assay type: in vivo, C57BL/6 mice; conditions: for myeloid infiltration (macrophages, MDSCs) into the tumor microenvironment: tumors harvested 13 days later
# Experimental: Mice were implanted with tumors as described FIGS. 25A-25B. Tumors were harvested 13 days later and assessed for infiltration of macrophages or myeloid derived suppressor cells (MDSCs). Macrophages are considered Lin−, F4/80+, and CD11b+ cells. MDSCs are considered Lin−, F4/80−, CD11c−, CD11b+, and Ly6C+ cells. Tumors were treated with anti-CTLA4 blocking antibody (FIG. 26D) as described in FIGS. 25A and 25B, and tumors were harvested at d15 to measure M2 polarization of macrophages as marked by CD206.
# Furthermore, mice were implanted with the same tumors and subsequently treated with the CSF1R inhibitor BLZ945. Polarization of macrophages and frequency of CD103+DCs were tested.
# In addition, mice were implanted with tumors and treated with anti-CTLA4+/−CSF1Ri BLZ945. Tumors were harvested 13 days later and immune populations were assessed using an unbiased clustering of flow cytometry data.
# Mice were implanted with B16-F10 tumor cells mixed 1:1 with MEFs or MEFs co-expressing SRP9/14 (FIG. 35B). Tumors were harvested 2 weeks post-injection and analyzed for immune cell populations. Unshielded RN7SL1 increased the frequency of dendritic cells, the percentage of CD103+ dendritic cells, the percentage of CD69+CD8+ T cells, and the percentage of PD1+CD8+ T cells in tumors (FIG. 35C). […] Without wishing to be bound by theory, a CSF1R inhibitor blocks M2 polarization and may synergize with unshielded RN7SL1.
# [3] = tumors harvested 2 weeks post-injection
substance,measurement,setting,value
"RN7SL1: Human RN7SL1 (7SL, srpRNA) RNA, 5'ppp, in vitro transcribed or secreted unshielded in exosomes; SEQ ID NO: 2",ISG induction after transfection,"[1]; 1833 cells, RIG-I wild type",induces ISGs in breast cancer cells specifically in a RIG-I-dependent manner
same,ISG induction after transfection,[1]; RIG-I KO cells with re-expression of WT RIG-I,restored antiviral signaling
same,ISG induction after transfection,[1]; alkaline phosphatase treatment prior to transfection,abolished ISG induction
same,T cell activation,[2]; dependent on MyD88,enhanced T cell activation
same,percentage of CD69+CD8+ T cells,[2]; [3],increased
same,percentage of CD103+ dendritic cells,[2]; [3],increased
same,percentage of PD1+CD8+ T cells,[2]; [3],increased
same,percentages of macrophages and MDSCs in CD45+ cells,[2]; [3],also increased
same,frequency of dendritic cells in tumors,"[2]; tumors harvested 2 weeks post-injection, listed as Unshielded RN7SL1",increased
same,frequency of dendritic cells in tumors,"[2]; tumors harvested 2 weeks post-injection, listed as unshielded 7SL1",increased the frequency of DCs in vivo
same,"myeloid infiltration (macrophages, MDSCs) into the tumor microenvironment",[2],triggered the infiltration of macrophages and MDSCs into the tumor microenvironment
same,"myeloid infiltration (macrophages, MDSCs) into the tumor microenvironment",[2]; listed as unshielded 7SL,drives myeloid infiltration into the tumor microenvironment
